Test results from BigSolDB 2.1.

Cn1cc[n+](CCCC[n+]2ccn(C)c2)c1.F[P-](F)(F)(F)(F)F.F[P-](F)(F)(F)(F)F
Settings | solubility (mole fraction)
in 2-butanone, 283.15 K | 0.00838
in 2-butanone, 288.15 K | 0.00936
in 2-butanone, 294.15 K | 0.0114
in 2-butanone, 299.15 K | 0.014
in 2-butanone, 304.15 K | 0.0178
in 2-butanone, 309.15 K | 0.0235
in 2-butanone, 315.15 K | 0.0349
in 2-butanone, 320.15 K | 0.0496
in 2-butanone, 325.15 K | 0.0728
in acetophenone, 299.65 K | 0.00127
in acetophenone, 303.65 K | 0.00198
in acetophenone, 307.35 K | 0.00285
in acetophenone, 313.15 K | 0.00472
in acetophenone, 318.15 K | 0.00677
in acetophenone, 323.15 K | 0.00919
in acetophenone, 328.15 K | 0.0117
in acetophenone, 332.15 K | 0.0137
in acetylacetone, 283.15 K | 0.00252
in acetylacetone, 288.15 K | 0.0026
in acetylacetone, 293.15 K | 0.00295
in acetylacetone, 297.45 K | 0.00352
in acetylacetone, 302.65 K | 0.00473
in acetylacetone, 309.15 K | 0.00768
in acetylacetone, 314.15 K | 0.0121
in acetylacetone, 320.15 K | 0.0227
in acetylacetone, 325.15 K | 0.0409
in acetylacetone, 330.15 K | 0.0784
in cyclohexanone, 283.15 K | 0.000563
in cyclohexanone, 288.15 K | 0.0009
in cyclohexanone, 293.15 K | 0.00138
in cyclohexanone, 298.35 K | 0.00206
in cyclohexanone, 302.15 K | 0.00271
in cyclohexanone, 308.65 K | 0.0041
in cyclohexanone, 313.15 K | 0.00529
in cyclohexanone, 318.25 K | 0.00688
in cyclohexanone, 323.15 K | 0.00857
in cyclohexanone, 328.15 K | 0.0105
in cyclohexanone, 333.15 K | 0.0124
in water, 283.15 K | 9.5e-05
in water, 288.45 K | 0.000124
in water, 293.15 K | 0.000156
in water, 298.15 K | 0.000203
in water, 303.65 K | 0.000274
in water, 308.15 K | 0.000348
in water, 313.15 K | 0.000456
in water, 318.35 K | 0.000608
in water, 323.15 K | 0.00079
in water, 328.15 K | 0.00105
in water, 333.15 K | 0.00138
